Where “and” joins values, the source holds several entries; their conditions need not be identical. Equal values may be shown once.

As a reminder, the pKa is the negative logarithm of the acid dissociation constant.

Details of data set [1]: species or system men. Particulars: in vivo. From the text:
The following example describes clinical tests comparing the product of Example 1 (test material) with L-ascorbic acid and citric acid (placebo), measuring intra-cellular and serum ascorbate levels, urinary ascorbate output and urinary oxalate excretion at various times after ingestion of standard doses of the test, L-ascorbic acid and placebo.
Twelve men, ages 27 to 45, were studied.
All were instructed that they should be on a low Vitamin C diet for one week prior to the study (no citrus products and no large amounts of green leafy vegetables).
Following overnight fast, blood and 24-hour urine samples were taken. White blood cell and 24-hour urinary ascorbate and oxalate levels were determined and correlated with serum ascorbate levels.
The 12 men were divided into three groups, and were given the following supplements: • (a) Test Group: 4000 MG* per day of the product Ex. 1. • (b) Ascorbate Group: 3000 MG of L-ascorbic per day. • (c) Citric Acid Group: 3000 MG of citric acid per day. *4000 MG is equivalent in ascorbate (iodine test) to 3000MG L-ascorbic acid.
All 12 continued on a low Vitamin C diet. Blood samples were taken at 0, 4, 8 and 24 hours after morning ingestion of the designated supplements. Urinary 24-hour ascorbate and oxalate levels were determined.
After a wash-out period (varying from two days to several days, due to job situation of participants), the groups were switched to another supplement, as follows: • (a) Test group to citrate group. • (b) Citrate group to ascorbate group. • (c) Ascorbate group to test group.
Supplements were taken at the same level (4000 MG of Ex. 1 product, 3000 MG of L-ascorbic and 3000 MG of citric acid) by all three groups. Blood samples were again drawn at 0, 4, 8 and 24 hours from time of ingestion. A 24-hour urine was also collected by all 12 participants at the end of the period. Again, all specimens were analyzed for their respective concentration of ascorbate and oxalate levels.
The analytical procedures utilized are described in: Clinical Chemistry, Principles and Techniques, edited by Richard J. Henry, Donald D. Cannon and James W. Windelman, Harper and Row, 1974 p. 1393-1398.
Standard Method of Clinical Chemistry, J. S. Roe, edited by Seligson D. New York, Academic Press, 1961, Vo. 3, p. 35.
In the quantitation of 24-hour urine oxalate, an aliquot of urine is shaken with an adsorbent which selectively binds the oxalate. The extracted urine is discarded and the oxalate is eluted from the adsorbent with dilute alkali.
Oxalate is oxidized to hydrogen peroxide and carbon dioxide by oxalate oxidase. The hydrogen peroxide reacts with 3-methyl-2-benzothiozolinone hydrazone (MBTH) and 3 (dimethylamino) benzoic acid (DMAB) in the presence of peroxidase to yield an indamine dye with a maximum absorbance at 590 NM.

The conditions of data set [2]: cited from earlier work.
A short description of data set [3]: Plasma Piroxicam after gavage, combined administration with calcium threonate (Example 12). In kind it is in vivo, Wistar derived albino rats. Particulars: 0.6 mg/kg; for Plasma Piroxicam Concentration: listed as U.S.P. piroxicam; for concentration at 4 h: 4 hours after dosing. As to the method:
Ten Wistar derived albino rats, male (375-411 gms), were acclimated for seven days prior to beginning the study. During this period the rats were fed Purina(R) Rodent Chow, watered ad lib and housed in self-flushing stainless-steel cages.
The rats were randomly assigned to two groups of five each and placed in Nalgene(R) cages. Group A received U.S.P. Piroxicam at 0.6 mg/kg, and Group AM received U.S.P. Piroxicam at 0.6 mg/kg plus calcium threonate at 15 mg/kg by gavage. Plasma samples were taken at 4, 6, 8 and 10 hours after dosing for plasma Piroxicam analysis.
Selective HPLC was used to analyze Piroxicam and the data analyzed via SAS. The ANOVA repeated measures procedure was used to determine differences in plasma Piroxicam concentrations between groups.
The average values (X) for each group and time are given. Figure 3 is the plasma profile of the data in Table 4.

The nature of data set [4]: Plasma Piroxicam after gavage, 3-day calcium threonate pretreatment (Example 13). The class given is in vivo, Wistar derived Albino rats. The settings on record: rat, po, 0.6 mg/kg, read-out: Piroxicam Plasma Concentration, average (X). As to the method: Ten Wistar derived Albino rats, male (420-456 gms), were acclimated for seven days prior to beginning the study. During this period the rats were fed Purina(R) Rodent Chow, watered ad lib and housed in self-flushing stainless-steel cages.
The rats were randomly assigned to two groups of five each. Group A rats were gavaged daily for 3 days with 1.0 ml distilled water prior to beginning the study. Group AM rats were gavaged daily with 15 mg/kg/ml of calcium threonate for 3 days also. Threonate dosages were corrected for increases in body weights daily in insure the 15 mg/kg dose was maintained.
On day 4 the Group A rats were gavaged with Piroxicam at 0.6 mg/kg and group AM rats with 0.6 mg/kg Piroxicam and 15 mg/kg threonate. Plasma samples were taken at 4, 6, 8 and 10 hrs. post-dosing for plasma Piroxicam analysis.
Selective HPLC was used to analyze Piroxicam. The data was analyzed statistically by the SAS procedure. The ANOVA repeated measures procedure was used to determine differences in plasma Piroxicam concentration between groups.
The average (X) values for each group at each time period are given.

The next data set relates to movement disorders. Nature of the data set: Supplementation of dogs with chronic movement disorders; clinical evaluation and owner's report. In kind it is in vivo. The settings on record: given orally. Here is the method: One hundred-eighty dogs of varying breed and age were fed 3 x 30 mgs/kg of the product of Example 1. All of these dogs suffered movement disorders.
The effect was measured seven days after supplementation and then again after six weeks. Last evaluation was after more than six months.
A number of different ailments were treated, both acute and chronic. In acute illness where symptoms are rapidly changing, one finds it hard to distinguish between the effect of supplementation and other factors.
Animals with the following chronic ailments were chosen: joint-injuries with secondary permanent changes, arthrosis, spondylosis, hip dysplasia, older dico-prolapse with secondary permanent changes, muscle-atrophy as a result of funtio laesa and senile wear-changes in support and motion-systems.
One hundred dogs qualify under the above criteria. Age or breed was not taken into consideration in this report.

On the set-up of data set [5]: species or system Wistar derived albino rats. Particulars: rat, in vivo. As to the method: Sixteen Wistar derived albino rats, eight male (242-333 gms) and eight female (295-345 gms) were acclimated for seven days prior to beginning this study. During this period the rats were fed Purina(R) Rodent Chow, watered ad lib and housed in self-flushing stainless-steel cages.
The rats were randomly assigned to two groups of eight each (4 males and 4 females) and placed in metabolism cages. […] Blood samples were taken at 1, 2, 3 and 4 hours after dosing for serum salicylate analysis. Urine was collected if produced at the same time periods for salicylate analysis also. In an effort to maximize urine output the rats were given additional water at 1, 2, 3 and 4 hours by gavage (3 ml).
Blood and urine were collected and analyzed according to the method of Natleson. [Natelson, S. Techniques of Clinical Chemistry, ed. 3. p. 649, Charles C. Thomas, Pub. (1971)]. The study was terminated after the 4 hour collection time.
All statistics were calculated via Statistical Analysis System (SAS Institute, Inc., Box 8000, Cary, NC, 27511) software. The ANOVA (repeated measures model) procedure was used to determine differences in salicylate concentrations between groups.
The average values (X) and standard deviation (SD) for each group and time are given. Figure 1 is a histogram presentation of the data in Table 2. The significance level (P) of the differences between the two groups at each sample time in salicylate concentration in serum are given next to each set of histograms. Figure 2 is the serum salicylate profile over time for both groups of rats, standard deviation bars are included. The initial uptake rate (gastrointestinal) is calculated from the linearized curve in the first hour after dosing. Urine salicylate data is not presented in detail but will be discussed below. The groups are not broken down into male and female because there is no significant difference in the serum salicylate related to the sex of the animal.

Experimental for 3T3 mouse fibroblasts: A control group was incubated with Ringer's as a control.
(5 ul of 14C-L ascorbic acid was added, 10.0 mCi/mmol, 0.05 mCi/ml).
The flasks were then washed with 4 ml HBSS(-) and then were trypsinized with 0.1 ml trypsin-EDTA for 5 minutes. The cells were resuspended in 4 ml ice cold HBSS(-) to stop the enzymatic reaction. The cells were centrifuged for 10 minutes at 1000 G. The cells were then washed and resuspended in 4 ml HBSS(-). The cells were again centrifuged (10 min, 1000G), resuspended in 1.0 ml distilled H2O and sonicated for 90 seconds.
0.5 ml of each sample was used for counting ^14C and 0.5 ml was used for protein analysis using the Bradford method.

Consider `O=C1O[C@H]([C@@H](O)CO)C(O)=C1O` [L-ascorbic, L-ascorbic acid], for which, in data set [1], the “7th Day Urine Ascorbate” value is listed as 459 MG/24 Hour, the “7th Day Urine Ascorbate % Change” value is on record as 4583%, the “24 Hour Urine Ascorbate” value turned out to be 314.5 MG/24 Hour and the “24 Hour Urine Ascorbate % Change” value worked out at 2760.6%. In data set [1], the “24th Hour Urine Oxalate” value worked out at 63.8 MG/24 Hour and the “24th Hour Urine Oxalate % Change” value was found to be 162%.

Consider `CC1=C(CC(=O)O)c2cc(F)ccc2/C1=C\c1ccc([S+](C)[O-])cc1` (stereo not shown) [Sulindac], for which the pKa in data set [2] is 4.7.

Turning to `O=C(O)[C@H](O)[C@@H](O)CO` [Calcium-L-Threonate, calcium L-threonate], the “uptake of 14C into the cells, average” value with 3T3 mouse fibroblasts (average of three flasks) was 1.19 DPM/ug. In addition, the “Uptake Ratio, average” value in the data set with 3T3 mouse fibroblasts (average of three flasks, relative to Ringer's control) was found to be 1.86. Also, the “uptake of 14C into the cells” value with 3T3 mouse fibroblasts (single flask, 100 mg% calcium L-threonate 1 hour at 37°C, then 1.25 mg% ascorbic acid 20 minutes) was 0.835 DPM/ug and 1.341 DPM/ug and 1.384 DPM/ug. Also, the “Uptake Ratio” value in the data set on 3T3 mouse fibroblasts (single flask, relative to average Ringer's control) was 1.30 and 2.09 and 2.16.

On to `Cc1ccc(Cl)c(Nc2ccccc2C(=O)O)c1Cl` [Meclofenamic Acid], for which, in data set [2], the pKa is 4.0.

Turning to `C=CCOc1ccc(CC(=O)O)cc1Cl` [Alclofenac], in data set [2], the pKa is listed as 4.6.

Take `CO[C@@]1(NC(=O)Cc2cccs2)C(=O)N2C(C(=O)O)=C(COC(N)=O)CS[C@@H]21` [Cefoxitin]: the pKa in data set [2] is 2.2.

On to `CN1C(C(=O)Nc2ccccn2)=C(O)c2ccccc2S1(=O)=O` [Prioxicam], for which the “Plasma Piroxicam Concentration” value was 1.9 µg/mL and 1.8 µg/mL and 1.6 µg/mL in data set [3] (8 hours after dosing, individual rat, 480 min); 1.4 µg/mL and 1.7 µg/mL and 2.0 µg/mL in data set [3] (10 hours after dosing, individual rat, 600 min). The concentration at 4 h came to 1800 ng/mL in data set [3] (rat, plasma, po, group average, read-out: Plasma Piroxicam Concentration, average (X)); 2200 ng/mL in data set [3] (rat, plasma, po, piroxicam 0.6 mg/kg (AM: plus threonate 15 mg/kg), individual rat, read-out: Plasma Piroxicam Concentration); 1300 ng/mL in data set [4] (4 hrs post-dosing on day 4, group average). Moreover, the concentration at 6 h in data set [3] (rat, plasma, po, 6 hours after dosing, group average, read-out: Plasma Piroxicam Concentration, average (X)) was determined as 1700 ng/mL; in data set [4] (6 hrs post-dosing on day 4, group average) it was 1300 ng/mL. The concentration at 8 h was 1800 ng/mL in data set [3] (rat, plasma, po, 8 hours after dosing, group average, read-out: Plasma Piroxicam Concentration, average (X)); 1700 ng/mL in data set [3] (rat, plasma, po, 8 hours after dosing, individual rat, read-out: Plasma Piroxicam Concentration); 1100 ng/mL in data set [4] (8 hrs post-dosing on day 4, group average). For the same compound, the concentration at 10 h was 1800 ng/mL in data set [3] (rat, plasma, po, 10 hours after dosing, group average, read-out: Plasma Piroxicam Concentration, average (X)); 2000 ng/mL in data set [3] (rat, plasma, po, 10 hours after dosing, individual rat, read-out: Plasma Piroxicam Concentration); 900 ng/mL in data set [4] (10 hrs post-dosing on day 4, group average).

Consider `O=C1O[C@H]([C@@H](O)CO)C(O)=C1O` [calcium-ascorbate], for which, in the data set with movement disorders, the “symptomatic relief of chronic deforming changes in the joint and skeleton system” value is reported as “Neither calcium-ascorbate alone nor L-ascorbic acid alone give such relief”.

Turning to `CC(=O)Oc1ccccc1C(=O)O` [Aspirin], in data set [5], the elimination rate is 1.30 mg/h and the uptake rate stood at 4.40 mg/h. Moreover, in data set [5] (60 min), the Urine salicylate result is on record as “approximately 9.1 mg%”.
